According to patent US20100267561A1, “HERBICIDAL PYRIDAZINONE DERIVATIVES” (priority 2007, published 2010):
Where two headings read alike, the source gives them in different places.

Experiments:
Type in all cases: in vivo
[1] = tested on: ducksalad (Heteranthera limosa); test: Test B flooded paddy test plant response
Outline: (§1)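 Compounds were added directly to paddy water over 2-leaf-stage plants in pots flooded 3 cm above soil, water depth maintained. Visual injury scored against controls after 13 to 15 days in greenhouse, 0 (none) to 100 (complete control); dash indicates no result.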

[2] = tested on: barnyardgrass (Echinochloa crus-galli); test: Test B flooded paddy test plant response
Outline: as §1

[3] = tested on: umbrella sedge (Cyperus difformis); test: Test B flooded paddy test plant response
Outline: as §1

rice (Oryza sativa) = test: Test B flooded paddy test plant response
Outline: as §1

[4] = tested on: large crabgrass (Digitaria sanguinalis); test: Test B pre-/postemergence plant response; conditions: for Plant response rating, Crabgrass, Large: Postemergence
Outline: (§2)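 Preemergence and postemergence (plants 2-18 cm, 1- to 4-leaf stage) applications used test chemicals in a non-phytotoxic solvent with surfactant. Plants were held in a greenhouse 13 to 15 days, then rated visually against controls on a 0-100 scale (0 no effect, 100 complete control).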

[5] = tested on: cocklebur (Xanthium strumarium); test: Test B pre-/postemergence plant response; conditions: for Plant response rating, Cocklebur: Postemergence
Outline: as §2

soybean (Glycine max) = test: Test B pre-/postemergence plant response; conditions: for Soybean plant response rating: postemergence, 0-100 scale; for Plant response rating, Soybean: Postemergence
Outline: as §2

[6] = tested on: downy bromegrass (Bromus tectorum); test: Test B pre-/postemergence plant response; conditions: for Plant response rating, Bromegrass, Downy: Postemergence
Outline: as §2

[7] = tested on: woolly cupgrass (Eriochloa villosa); test: Test B pre-/postemergence plant response; conditions: for Plant response rating, Cupgrass, Woolly: Postemergence
Outline: as §2

wild oat (Avena fatua) = test: Test B pre-/postemergence plant response; conditions: for Oat, Wild plant response rating: postemergence, 0-100 scale; for Plant response rating, Oat, Wild: Postemergence
Outline: as §2

[8] = tested on: bermudagrass (Cynodon dactylon); test: Test B pre-/postemergence plant response; conditions: for Plant response rating, Bermudagrass: Postemergence
Outline: as §2

[9] = tested on: wheat (Triticum aestivum); test: Test B pre-/postemergence plant response; conditions: for Wheat plant response rating: postemergence, 0-100 scale; for Plant response rating, Wheat: Postemergence
Outline: as §2

[10] = tested on: velvetleaf (Abutilon theophrasti); test: Test B pre-/postemergence plant response; conditions: for Velvetleaf plant response rating: postemergence, 0-100 scale; for Plant response rating, Velvetleaf: Postemergence
Outline: as §2

[11] = Heteranthera limosa, Flood (flooded paddy test), 250 g ai/ha, scale 0 to 100, 0 no effect, 100 complete control, read-out: Plant response rating, Ducksalad
[12] = Echinochloa crus-galli, Flood (flooded paddy test), 250 g ai/ha, scale 0 to 100, 0 no effect, 100 complete control, read-out: Plant response rating, Barnyardgrass
[13] = Cyperus difformis, Flood (flooded paddy test), 250 g ai/ha, scale 0 to 100, 0 no effect, 100 complete control, read-out: Plant response rating, Sedge, Umbrella
[14] = Oryza sativa, Flood (flooded paddy test), 250 g ai/ha, scale 0 to 100, 0 no effect, 100 complete control, read-out: Plant response rating, Rice
[15] = Flood (flooded paddy test), 62 g ai/ha, scale 0 to 100, 0 no effect, 100 complete control
[16] = Flood (flooded paddy test), 125 g ai/ha, scale 0 to 100, 0 no effect, 100 complete control
[17] = Flood (flooded paddy test), 250 g ai/ha, scale 0 to 100, 0 no effect, 100 complete control
[18] = Flood, 31 g ai/ha, scale 0 to 100
[19] = 8 g ai/ha, postemergence, 0-100 scale
[20] = 62 g ai/ha, scale 0 to 100, 0 no effect, 100 complete control

## Cc1cn(-c2ccc(C(F)(F)F)cc2)nc1-c1c(O)cnn(C)c1=O [Compound 85, 5-hydroxy-2-methyl-4-[4-methyl-1-[4-(trifluoromethyl)phenyl]-1H-pyrazol-3-yl]-3(2H)-pyridazinone]
[1]; [11]
  pest or weed control at 250 g/ha: 0%
[1]; Heteranthera limosa, Flood, 62 g ai/ha, scale 0 to 100, read-out: Plant response rating, Ducksalad
  pest or weed control at 62 g/ha: 0%
[2]; [12]
  pest or weed control at 250 g/ha: 0%
[2]; Echinochloa crus-galli, Flood, 62 g ai/ha, scale 0 to 100, read-out: Plant response rating, Barnyardgrass
  pest or weed control at 62 g/ha: 0%
[3]; [13]
  pest or weed control at 250 g/ha: 0%
[3]; Cyperus difformis, Flood, 62 g ai/ha, scale 0 to 100, read-out: Plant response rating, Sedge, Umbrella
  pest or weed control at 62 g/ha: 0%
Rice (Oryza sativa); [14]
  plant injury at 250 g/ha: 0%
Rice (Oryza sativa); Oryza sativa, Flood, 62 g ai/ha, scale 0 to 100, read-out: Plant response rating, Rice
  plant injury at 62 g/ha: 0%

## Cc1cc(-c2ccc(Br)cc2)nn1-c1c(O)cnn(C2CCCCO2)c1=O (stereo not shown) [Compound 77, 4-[3-(4-bromophenyl)-5-methyl-1H-pyrazol-1-yl]-5-hydroxy-2-(tetrahydro-2H-pyran-2-yl)-3(2H)-pyridazinone]
[1]; Heteranthera limosa, Flood (flooded paddy test), 62 g ai/ha, scale 0 to 100, 0 no effect, 100 complete control, read-out: Plant response rating, Ducksalad
  pest or weed control at 62 g/ha: 0%
[1]; Heteranthera limosa, Flood (flooded paddy test), 125 g ai/ha, scale 0 to 100, 0 no effect, 100 complete control, read-out: Plant response rating, Ducksalad
  pest or weed control at 125 g/ha: 0%
[1]; [11]
  pest or weed control at 250 g/ha: 0%
[1]; Heteranthera limosa, Flood, 31 g ai/ha, scale 0 to 100, read-out: Plant response rating, Ducksalad
  pest or weed control at 31 g/ha: 0%
[2]; Echinochloa crus-galli, Flood (flooded paddy test), 62 g ai/ha, scale 0 to 100, 0 no effect, 100 complete control, read-out: Plant response rating, Barnyardgrass
  pest or weed control at 62 g/ha: 0%
[2]; Echinochloa crus-galli, Flood (flooded paddy test), 125 g ai/ha, scale 0 to 100, 0 no effect, 100 complete control, read-out: Plant response rating, Barnyardgrass
  pest or weed control at 125 g/ha: 0%
[2]; [12]
  pest or weed control at 250 g/ha: 0%
[2]; Echinochloa crus-galli, Flood, 31 g ai/ha, scale 0 to 100, read-out: Plant response rating, Barnyardgrass
  pest or weed control at 31 g/ha: 0%
[3]; Cyperus difformis, Flood (flooded paddy test), 62 g ai/ha, scale 0 to 100, 0 no effect, 100 complete control, read-out: Plant response rating, Sedge, Umbrella
  pest or weed control at 62 g/ha: 0%
[3]; Cyperus difformis, Flood (flooded paddy test), 125 g ai/ha, scale 0 to 100, 0 no effect, 100 complete control, read-out: Plant response rating, Sedge, Umbrella
  pest or weed control at 125 g/ha: 0%
[3]; [13]
  pest or weed control at 250 g/ha: 0%
[3]; Cyperus difformis, Flood, 31 g ai/ha, scale 0 to 100, read-out: Plant response rating, Sedge, Umbrella
  pest or weed control at 31 g/ha: 0%
Rice (Oryza sativa); Oryza sativa, Flood (flooded paddy test), 62 g ai/ha, scale 0 to 100, 0 no effect, 100 complete control, read-out: Plant response rating, Rice
  plant injury at 62 g/ha: 0%
Rice (Oryza sativa); Oryza sativa, Flood (flooded paddy test), 125 g ai/ha, scale 0 to 100, 0 no effect, 100 complete control, read-out: Plant response rating, Rice
  plant injury at 125 g/ha: 0%
Rice (Oryza sativa); [14]
  plant injury at 250 g/ha: 0%
Rice (Oryza sativa); Oryza sativa, Flood, 31 g ai/ha, scale 0 to 100, read-out: Plant response rating, Rice
  plant injury at 31 g/ha: 0%

## CCc1cc(-c2ccc(Br)cc2)nn1-c1c(O)cnn(CC(F)(F)F)c1=O [Compound 73]
[1]; [15]
  Plant response rating, Ducksalad: 0
[1]; [16]
  Plant response rating, Ducksalad: 0
[1]; [17]
  Plant response rating, Ducksalad: 0
[1]; [18]
  Plant response rating, Ducksalad: 0
[2]; [15]
  Plant response rating, Barnyardgrass: 0
[2]; [16]
  Plant response rating, Barnyardgrass: 0
[2]; [17]
  Plant response rating, Barnyardgrass: 0
[2]; [18]
  Plant response rating, Barnyardgrass: 0
[3]; [15]
  Plant response rating, Sedge, Umbrella: 0
[3]; [16]
  Plant response rating, Sedge, Umbrella: 0
[3]; [17]
  Plant response rating, Sedge, Umbrella: 0
[3]; [18]
  Plant response rating, Sedge, Umbrella: 0
Rice (Oryza sativa); [15]
  Plant response rating, Rice: 0
Rice (Oryza sativa); [16]
  Plant response rating, Rice: 0
Rice (Oryza sativa); [17]
  Plant response rating, Rice: 0
Rice (Oryza sativa); [18]
  Plant response rating, Rice: 0
[4]; [19]
  Crabgrass, Large plant response rating: 45
[4]; 16 g ai/ha, scale 0 to 100
  Plant response rating, Crabgrass, Large: 70
[4]; 31 g ai/ha, scale 0 to 100
  Plant response rating, Crabgrass, Large: 100
[4]; [20]
  Plant response rating, Crabgrass, Large: 100
[5]; [19]
  Cocklebur plant response rating: 0
[5]; 16 g ai/ha, scale 0 to 100
  Plant response rating, Cocklebur: 0
[5]; 31 g ai/ha, scale 0 to 100
  Plant response rating, Cocklebur: 0
[5]; [20]
  Plant response rating, Cocklebur: 0
Soybean (Glycine max); 8 g ai/ha
  Soybean plant response rating: 0
Soybean (Glycine max); 16 g ai/ha
  Soybean plant response rating: 0
Soybean (Glycine max); 31 g ai/ha, scale 0 to 100
  Plant response rating, Soybean: 10
Soybean (Glycine max); [20]
  Plant response rating, Soybean: 10
[6]; [19]
  Bromegrass, Downy plant response rating: 0
[6]; 16 g ai/ha, scale 0 to 100
  Plant response rating, Bromegrass, Downy: 0
[6]; 31 g ai/ha, scale 0 to 100
  Plant response rating, Bromegrass, Downy: 30
[6]; [20]
  Plant response rating, Bromegrass, Downy: 60
[7]; [19]
  Cupgrass, Woolly plant response rating: 85
[7]; 16 g ai/ha, scale 0 to 100
  Plant response rating, Cupgrass, Woolly: 98
[7]; 31 g ai/ha, scale 0 to 100
  Plant response rating, Cupgrass, Woolly: 100
[7]; [20]
  Plant response rating, Cupgrass, Woolly: 100
Wild oat (Avena fatua); 8 g ai/ha
  Oat, Wild plant response rating: 70
Wild oat (Avena fatua); 16 g ai/ha
  Oat, Wild plant response rating: 95
Wild oat (Avena fatua); 31 g ai/ha, scale 0 to 100
  Plant response rating, Oat, Wild: 100
Wild oat (Avena fatua); [20]
  Plant response rating, Oat, Wild: 100
[8]; [19]
  Bermudagrass plant response rating: 0
[8]; 16 g ai/ha, scale 0 to 100
  Plant response rating, Bermudagrass: 0
[8]; 31 g ai/ha, scale 0 to 100
  Plant response rating, Bermudagrass: 10
[8]; [20]
  Plant response rating, Bermudagrass: 10
[9]; 8 g ai/ha
  Wheat plant response rating: 5
[9]; 16 g ai/ha
  Wheat plant response rating: 60
[9]; 31 g ai/ha, scale 0 to 100
  Plant response rating, Wheat: 90
[9]; [20]
  Plant response rating, Wheat: 95
[10]; 8 g ai/ha
  Velvetleaf plant response rating: 0
[10]; 16 g ai/ha
  Velvetleaf plant response rating: 0
[10]; 31 g ai/ha, scale 0 to 100
  Plant response rating, Velvetleaf: 0
[10]; [20]
  Plant response rating, Velvetleaf: 0
